Data reported in patent US11542282B2, “Low affinity poly(AD-ribose) polymerase 1 dependent cytotoxic agents” (THE TRUSTEES OF THE UNIVERSITY OF PENNSYLVANIA, priority 2018, dated 2023).

Assays:
[1] = test system: MEF PARP-1 (-/-) KO cells; assay: Cell viability assay in MEF PARP-1 KO-/- cells; format: cell-based; conditions: Mus musculus, NA = Not applicable, no cell death observed
Procedure: (§1) Genetically engineered PARP-1 and PARP-2 double knockout mouse embryonic fibroblast (MEF) were used for cell viability studies with wildtype control.
(§2) Cell viability assays were carried out using four cell lines including OVCAR8, MEF wt, MEF PARP-1 (−/−) KO, and MEF PARP-2 (−/−) KO as described in Makvandi cited above. Briefly, cells were seeded in black wall clear bottom 96-well plates at concentrations of 1,000 cells/well. […] Plates were read on an Enspire multimode plate reader (Perkin Elmer). Data was normalized to percent survival at each concentration evaluated by diving the luminescent signal in treated wells vs. the average of vehicle controls. Experiments were repeated three times and all compounds were assayed during each experiment.
(§3) This isogenic model was selected due to the highly conserved nature of the PARP catalytic domain, all-owing investigation in enzyme specificity.
Enzyme dependency of selected compounds in MEF PARP-1 KO−/− cells (FIG. 2B) was performed as described above in order to identify if these analogues act through other cellular targets.

MEF WT cells = assay: Cell viability assay in MEF WT cells; format: cell-based, mouse; conditions: NA = Not applicable, no cell death observed
Procedure: as §1, §2, §3

PARP-1 = PARP-1 (Homo sapiens, UniProt P09874); assay: PARP-1 radioligand binding in live OVCAR8 cells ([125I]KX1 competition); conditions: for IC50: radioligand binding in OVCAR8 cells
Procedure: (§4) Cells were cultured using standard techniques at 37° C. with 5% CO2 and 15% 02. […] Genetically engineered PARP-1 and PARP-2 double knockout mouse embryonic fibroblast (MEF) were used for cell viability studies with wildtype control. All cells were cultured in RPMI 1640 with 10% FBS and 1% penicillin/streptomycin.
The affinity of each compound for the PARP-1 enzyme was evaluated using a radioligand binding method described in Makvandi, A radiotracer strategy to quantify PARP-1 expression in vivo provides a biomarker that can enable patient selection for PARP inhibitor therapy. Cancer Research 2016. Briefly, OVCAR8 ovarian cancer cells were seeded in 96-well Stripwell plates at a density of 40,000 cells/well 24 hrs prior to the study. On the day of study, compounds were diluted in RPMI to concentrations of 100 μM-0.064 nM. […] Reactions were allowed to equilibrate for 1 hr and were then washed with 200 μL of PBS. Wells were separated and counted on an automatic Wizard gamma counter (Perkin Elmer, Waltham Mass.). […] Experiments were repeated three times with adjusting dose concentrations to increase accuracy of IC50 values.
Compounds 10-17 were evaluated for PARP-1 inhibition using a radioligand binding assay protocol with BRCA1 methylated ovarian cancer cells (OVCAR8) as described above. See, Table 3. […] Compared to 1a, oxaazaspiro analogue 1b performed slightly better with scaffold 10b displaying a PARP-1 binding value of 24.9 nM.

[2] = test system: MEF PARP-2 (-/-) KO cells; assay: Cell viability assay in MEF PARP-2 KO-/- cells; format: cell-based, mouse; conditions: Mus musculus, NA = Not applicable, no cell death observed
Procedure: as §1, §2, §3
The cell cytotoxicity profile of these selected compounds in MEF PARP-2 KO−/− cell lines was then analyzed as described above.

OVCAR8 cells = assay: Cell viability / cytotoxicity assay in OVCAR8 cells (CellTiter Glo); format: cell-based; conditions: Homo sapiens, OVCAR-8, Table 4
Procedure: as §4
Cell viability assays were carried out using four cell lines including OVCAR8, MEF wt, MEF PARP-1 (−/−) KO, and MEF PARP-2 (−/−) KO as described in Makvandi cited above. Briefly, cells were seeded in black wall clear bottom 96-well plates at concentrations of 1,000 cells/well. After 24 h, cells were then treated with concentrations from 100-0.016 μM. Cells were incubated with compounds for 4-7 days and then assayed for cell viability using the luminescent based assay, CellTiter Glo (Promega, Waltham Mass.). Plates were read on an Enspire multimode plate reader (Perkin Elmer). Data was normalized to percent survival at each concentration evaluated by diving the luminescent signal in treated wells vs. the average of vehicle controls. Experiments were repeated three times and all compounds were assayed during each experiment.
Cytotoxicity was then examined in OVCAR8 cells at 1, 10 and 100 μm concentrations as described above. See, FIGS. 1A-1C.
EC50 values of compounds 18-103 were obtained using OVCAR8 cells. See, Table 4.

Chain of PARP-1 (P09874 whole entry): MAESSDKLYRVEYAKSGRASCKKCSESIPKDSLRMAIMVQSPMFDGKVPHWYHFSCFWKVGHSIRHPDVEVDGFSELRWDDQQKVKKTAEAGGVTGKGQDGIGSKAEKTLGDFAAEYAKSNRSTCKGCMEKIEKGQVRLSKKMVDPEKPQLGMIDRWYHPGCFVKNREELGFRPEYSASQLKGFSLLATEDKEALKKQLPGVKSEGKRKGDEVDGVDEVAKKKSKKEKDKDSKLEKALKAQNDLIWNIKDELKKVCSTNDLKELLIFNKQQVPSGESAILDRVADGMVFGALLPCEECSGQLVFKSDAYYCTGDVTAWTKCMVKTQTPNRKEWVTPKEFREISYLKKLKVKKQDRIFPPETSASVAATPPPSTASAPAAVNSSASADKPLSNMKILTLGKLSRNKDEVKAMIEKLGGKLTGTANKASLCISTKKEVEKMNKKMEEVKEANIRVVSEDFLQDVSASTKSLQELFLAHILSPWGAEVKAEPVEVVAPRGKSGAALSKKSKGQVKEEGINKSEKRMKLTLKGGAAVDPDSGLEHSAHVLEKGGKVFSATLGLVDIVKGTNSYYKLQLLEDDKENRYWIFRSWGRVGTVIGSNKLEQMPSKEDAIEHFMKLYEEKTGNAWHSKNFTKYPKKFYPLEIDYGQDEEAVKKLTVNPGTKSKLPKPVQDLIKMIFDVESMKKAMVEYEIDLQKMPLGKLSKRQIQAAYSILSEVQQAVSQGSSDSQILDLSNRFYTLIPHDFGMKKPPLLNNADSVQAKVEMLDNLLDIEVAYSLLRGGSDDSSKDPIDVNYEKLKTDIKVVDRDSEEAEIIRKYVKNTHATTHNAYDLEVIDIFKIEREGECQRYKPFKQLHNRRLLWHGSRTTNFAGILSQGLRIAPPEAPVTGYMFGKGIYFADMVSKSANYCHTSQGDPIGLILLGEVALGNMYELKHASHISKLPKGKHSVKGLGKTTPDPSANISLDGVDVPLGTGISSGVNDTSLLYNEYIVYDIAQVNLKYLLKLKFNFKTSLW

| EC50 (PARP-1) [µM] | IC50 (PARP-1) [µM] | fold lower PARP-1 affinity compared to the methylene congener (PARP-1; 10c vs 10a, 15b vs 15a) [fold] | SMILES | EC50 [1] [µM] | EC50 (MEF WT cells; Mus musculus) [µM] | EC50 [2] [µM] | EC50 (OVCAR8 cells) [µM] | EC50 (MEF WT cells) [µM] |
| --- | --- | --- | --- | --- | --- | --- | --- | --- |
| 0.1414 ± 0.0013 | – | – | O=C(c1cc(Cc2n[nH]c(=O)c3ccccc23)ccc1F)N1CCC2(CCCCC2)C1 [Compound 16a, 4-(4-Fluoro-3-(2-azaspiro[4.5]decane-2-carbonyl)benzyl)phthalazin-1(2H)-one] | 51.6 | 42.7 | 46.8 | – | – |
| 4.4 | 4.4 | ~85 | CC(C)(C)OC(=O)N1CCC2(CCN(C(=O)c3cc(Cc4n[nH]c(=O)c5ccccc45)ccc3F)C2)C1 (stereo not shown) [Compound 15b, Tert-butyl 7-(2-fluoro-5-((4-oxo-3,4-dihydrophthalazin-1-yl)methyl)benzoyl)-2,7-diazaspiro[4.4]nonane-2-carboxylate] | 46.4 | 17.2 | 23.4 | – | – |
| 0.453 | 0.453 | – | CC(C)(C)OC(=O)N1CCC2(CC1)CCN(C(=O)c1cc(Cc3n[nH]c(=O)c4ccccc34)ccc1F)CC2 [Compound 17b, Tert-butyl 9-(2-fluoro-5-((4-oxo-3,4-dihydrophthalazin-1-yl)methyl)benzoyl)-3,9-diazaspiro[5.5]undecane-3-carboxylate] | 43.4 | 16.9 | 19.2 | – | – |
| 1.1 | – | – | CC(C)(C)OC(=O)N1CCC2(CC1)CCN(C(=O)c1cc(Cc3n[nH]c(=O)c4ccccc34)ccc1F)C2 [Compound 16b, Tert-butyl 2-(2-fluoro-5-((4-oxo-3,4-dihydrophthalazin-1-yl)methyl)benzoyl)-2,8-diazaspiro[4.5]decane-8-carboxylate] | 45.9 | 9.4 | 31.6 | – | – |
| 0.0571 ± 0.0012 | – | – | O=C(c1cc(Cc2n[nH]c(=O)c3ccccc23)ccc1F)N1CCC2(CCCCC2)CC1 [Compound 17a, 4-(4-Fluoro-3-(3-azaspiro[5.5]undecane-3-carbonyl)benzyl)phthalazin-1(2H)-one] | – | 41.3 | 41.3 | – | – |
| 0.0514 ± 0.0011 | – | – | O=C(c1cc(Cc2n[nH]c(=O)c3ccccc23)ccc1F)N1CCC2(CCCC2)C1 [Compound 15a, 4-(4-Fluoro-3-(2-azaspiro[4.4]nonane-2-carbonyl)benzyl)phthalazin-1(2H)-one] | – | 31.7 | 55.5 | – | – |

The remaining lines, values behind:

| SMILES | EC50 (PARP-1) [µM] | IC50 (PARP-1) [µM] | fold lower PARP-1 affinity compared to the methylene congener (PARP-1; 10c vs 10a, 15b vs 15a) [fold] | EC50 [1] [µM] | EC50 (MEF WT cells; Mus musculus) [µM] | EC50 [2] [µM] | EC50 (OVCAR8 cells) [µM] | EC50 (MEF WT cells) [µM] |
| --- | --- | --- | --- | --- | --- | --- | --- | --- |
| O=C(c1cc(Cc2n[nH]c(=O)c3ccccc23)ccc1F)N1CC2(CCCCC2)C1 [Compound 12a, 4-(4-Fluoro-3-(2-azaspiro[3.5]nonane-2-carbonyl)benzyl)phthalazin-1(2H)-one] | 0.0654 ± 0.0015 | – | – | 48.3 | 25.6 | 39.9 | – | – |
| O=C(c1cc(Cc2n[nH]c(=O)c3ccccc23)ccc1F)N1CC2(C1)CN(c1ccc(F)cc1)C2 [Compound 40, 4-(4-fluoro-3-(6-(4-fluorophenyl)-2,6-diazaspiro[3.3]heptane-2-carbonyl)benzyl)phthalazin-1(2H)-one] | 0.000376 | – | – | – | – | – | 12 | – |
| O=C(c1cc(Cc2n[nH]c(=O)c3ccccc23)ccc1F)N1CCC(OCCF)CC1 [Compound 31, 4-(4-fluoro-3-(4-(2-fluoroethoxy)piperidine-1-carbonyl)benzyl)phthalazin-1(2H)-one] | 0.00395 ± 0.0012 | – | – | – | – | – | 17.1 ± 1.2 | – |
| O=C(c1cc(Cc2n[nH]c(=O)c3ccccc23)ccc1F)N1CCC2(CC1)CCN(C(=O)C1CC1)CC2 [Compound 17d, 4-(3-(9-(Cyclopropanecarbonyl)-3,9-diazaspiro[5.5]undecane-3-carbonyl)-4-fluorobenzyl)phthalazin-1(2H)-one] | 0.0443 | 0.0443 | – | 49.7 | 24.8 | 21.6 | – | – |
| CO[C@H]1C[C@H](NC(=O)c2cc(Cc3n[nH]c(=O)c4ccccc34)ccc2F)C1 [Compound 20] | – | – | – | – | – | – | 72.2 | – |
| COC1CCC(NC(=O)c2cc(Cc3n[nH]c(=O)c4ccccc34)ccc2F)C1 (stereo not shown) [Compound 21] | 0.0496 ± 0.0011 | – | – | – | – | – | 17 ± 1.2 | – |
| CC(C)(C)OC(=O)N1CCC2(CC1)CN(C(=O)c1cc(Cc3n[nH]c(=O)c4ccccc34)ccc1F)C2 [Compound 12b, Tert-butyl 2-(2-fluoro-5-((4-oxo-3,4-dihydrophthalazin-1-yl)methyl)benzoyl)-2,7-diazaspiro[3.5]nonane-7-carboxylate] | 3.12 | 3.12 | – | 49.2 | ~23 | 41.5 | – | 23.4 |
| O=C(c1cc(Cc2n[nH]c(=O)c3ccccc23)ccc1F)N1CC[C@@H](OCCF)C1 [Compound 28, (R)-4-(4-fluoro-3-(3-(2-fluoroethoxy)pyrrolidine-1-carbonyl)benzyl)phthalazin-1(2H)-one] | 0.0101 ± 0.0011 | – | – | – | – | – | 30.9 ± 1.2 | – |
| O=C(c1cc(Cc2n[nH]c(=O)c3ccccc23)ccc1F)N1CC[C@H](OCCF)C1 [Compound 29, (S)-4-(4-fluoro-3-(3-(2-fluoroethoxy)pyrrolidine-1-carbonyl)benzyl)phthalazin-1(2H)-one] | 0.00688 | – | – | – | – | – | 56.6 | – |
| COC1CCC(NC(=O)c2cc(Cc3n[nH]c(=O)c4ccccc34)ccc2F)CC1 (stereo not shown) [Compound 22] | 0.2263 ± 0.0011 | – | – | – | – | – | 16.2 ± 1.2 | – |
| COC1CN(C(=O)c2cc(Cc3n[nH]c(=O)c4ccccc34)ccc2F)C1 [Compound 23] | 0.00827 ± 0.0011 | – | – | – | – | – | 71.5 ± 1.2 | – |
| O=C(c1cc(Cc2n[nH]c(=O)c3ccccc23)ccc1F)N1CCCC(OCCF)CC1 (stereo not shown) [Compound 33, 4-(4-fluoro-3-(4-(2-fluoroethoxy)azepane-1-carbonyl)benzyl)phthalazin-1(2H)-one] | 0.00562 ± 0.0011 | – | – | – | – | – | 11.3 ± 1.3 | – |
| COC1CCN(C(=O)c2cc(Cc3n[nH]c(=O)c4ccccc34)ccc2F)C1 (stereo not shown) [Compound 24] | 0.00421 ± 0.0011 | – | – | – | – | – | 37.3 ± 1.2 | – |
| O=C(c1ccc(F)cc1)N1CC2(C1)CN(C(=O)c1cc(Cc3n[nH]c(=O)c4ccccc34)ccc1F)C2 [46 (X = F)] | 0.0218 | – | – | – | – | – | 36 | – |
| CO[C@H]1C[C@@H](NC(=O)c2cc(Cc3n[nH]c(=O)c4ccccc34)ccc2F)C1 [Compound 19] | 0.0208 ± 0.0011 | – | – | – | – | – | 17.1 ± 1.2 | – |
| COC1CCCN(C(=O)c2cc(Cc3n[nH]c(=O)c4ccccc34)ccc2F)CC1 (stereo not shown) [Compound 25] | 0.00474 ± 0.0011 | – | – | – | – | – | 20.2 ± 1.3 | – |
| O=C(c1cc(Cc2n[nH]c(=O)c3ccccc23)ccc1F)N1CC(OCCF)C1 [Compound 26, 4-(4-fluoro-3-(3-(2-fluoroethoxy)azetidine-1-carbonyl)benzyl)phthalazin-1(2H)-one] | 0.00754 ± 0.0011 | – | – | – | – | – | 74.1 ± 1.3 | – |
